{"source": "patent US6602900B2", "about": "“Cyclopentane heptan(ENE)oic acid, 2-heteroarylalkenyl derivatives as therapeutic agents” (Allergan, Inc., priority 1992, dated 2003)", "key": {"ocular surface": {"test_system": "ocular surface", "conditions": "humans; cited from earlier work"}, "Dog intraocular pressure": {"test_system": "Dog intraocular pressure", "test": "Dog intraocular pressure by applanation pneumatonometry", "format": "in vivo", "conditions": "dogs", "experimental": "The compounds were prepared at the said concentrations in a vehicle comprising 0.1% polysorbate 80 and 10 mM TRIS base. Dogs were treated by administering 25 μl to the ocular surface, the contralateral eye received vehicle as a control. Intraocular pressure was measured by applanation pneumatonometry. Dog intraocular pressure was measured immediately before drug administration and at 6 hours thereafter."}, "EP1 receptor": {"target": "T1, EP1 receptor (Cavia porcellus, UniProt A0A286XHJ6)", "T1 sequence (A0A286XHJ6 1-405)": "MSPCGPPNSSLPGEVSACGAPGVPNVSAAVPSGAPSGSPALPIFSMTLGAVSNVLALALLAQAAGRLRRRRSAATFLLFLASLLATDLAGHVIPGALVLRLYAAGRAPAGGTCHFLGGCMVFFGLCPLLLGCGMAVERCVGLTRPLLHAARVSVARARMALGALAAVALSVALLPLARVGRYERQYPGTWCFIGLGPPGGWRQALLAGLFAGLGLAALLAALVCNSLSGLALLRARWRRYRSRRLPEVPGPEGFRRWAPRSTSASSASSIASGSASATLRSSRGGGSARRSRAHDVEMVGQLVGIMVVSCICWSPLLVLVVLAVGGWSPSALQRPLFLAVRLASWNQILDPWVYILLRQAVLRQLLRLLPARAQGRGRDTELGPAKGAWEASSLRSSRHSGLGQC", "test": "EP1-activity: contraction of the longitudinal smooth muscle of the isolated guinea pig ileum", "format": "cell-based", "experimental": "(§1) Activity at different prostanoid receptors was measured in vitro in isolated smooth muscle preparations. FP-activity was measured as contraction of the isolated feline iris sphincter. EP1-activity was measured as contraction of the longitudinal smooth muscle of the isolated guinea pig ileum. EP3-activity was measured as inhibition of the twitch response induced by electrical field stimulation in the isolated guinea pig was deferens and as contraction of the longitudinal smooth muscle of the isolated chick ileum. Activity was also measured as relaxation of smooth muscle of isolated rabbit jugular vein a preparation which appears to contain a unique PGF2α-sensitive receptor provisionally termed FPVASC. TP-vasoconstrictor activity was measured as contraction of rings of the isolated rat thoracic aorta. Effects on platelets from healthy human donors were measured by incubating platelet-rich plasma with the compounds described herein. Inhibition of aggregation was determined by the ability of the compounds described herein to inhibit platelet aggregation in platelet-rich plasma induced by 20 μM ADP."}, "Dog eye (hyperemia)": {"test_system": "Dog eye (hyperemia)", "test": "Ocular surface hyperemia in dogs after topical dosing", "format": "in vivo", "design": "scale not given here"}, "[1]": {"test_system": "PGF2α-sensitive receptor provisionally termed FPVASC", "test": "Relaxation of smooth muscle of isolated rabbit jugular vein", "format": "cell-based", "conditions": "isolated rabbit jugular vein relaxation; read-out: EC50 (nM) FPVASC", "experimental": "as §1"}, "EP3 receptor": {"target": "T2, EP3 receptor (UniProt A0A286XLZ9)", "T2 sequence (A0A286XLZ9 1-363)": "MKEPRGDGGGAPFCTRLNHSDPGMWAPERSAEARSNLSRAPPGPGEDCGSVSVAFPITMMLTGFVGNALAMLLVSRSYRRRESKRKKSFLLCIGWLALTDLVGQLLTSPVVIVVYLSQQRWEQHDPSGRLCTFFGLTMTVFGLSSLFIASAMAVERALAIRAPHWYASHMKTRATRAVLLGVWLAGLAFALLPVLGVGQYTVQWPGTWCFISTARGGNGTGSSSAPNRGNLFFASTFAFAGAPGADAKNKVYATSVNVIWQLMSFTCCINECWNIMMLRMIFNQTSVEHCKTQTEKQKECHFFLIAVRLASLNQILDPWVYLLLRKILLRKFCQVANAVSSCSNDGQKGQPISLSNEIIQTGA", "test": "EP3-activity: inhibition of the twitch response induced by electrical field stimulation in the isolated guinea pig vas deferens", "format": "cell-based", "conditions": "pa = printed beside some values, read-out: EC50 (nM) EP3, first value of the cell", "experimental": "as §1"}, "Dog eye (miosis)": {"test_system": "Dog eye (miosis)", "test": "Miosis in dogs after topical dosing", "format": "in vivo"}, "TP receptor": {"target": "T3, TP receptor (Rattus norvegicus, UniProt P34978)", "T3 construct": "rings of the isolated rat thoracic aorta; from tissue; host or cells: isolated rat thoracic aorta rings", "T3 sequence (P34978 1-341)": "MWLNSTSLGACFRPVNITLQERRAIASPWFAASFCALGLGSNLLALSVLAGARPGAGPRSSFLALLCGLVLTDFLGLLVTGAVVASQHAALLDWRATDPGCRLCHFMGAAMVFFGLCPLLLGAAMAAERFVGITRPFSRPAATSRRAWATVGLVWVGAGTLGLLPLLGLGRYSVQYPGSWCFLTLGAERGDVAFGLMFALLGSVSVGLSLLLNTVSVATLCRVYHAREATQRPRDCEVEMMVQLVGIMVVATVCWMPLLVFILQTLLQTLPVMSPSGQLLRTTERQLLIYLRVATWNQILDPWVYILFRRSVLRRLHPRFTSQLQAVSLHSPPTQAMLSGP", "test": "TP-vasoconstrictor activity: contraction of rings of the isolated rat thoracic aorta", "format": "cell-based", "conditions": "isolated rat thoracic aorta contraction; read-out: EC50 (nM) TP", "experimental": "as §1"}, "intraocular pressure": {"test_system": "intraocular pressure", "conditions": "ocular; cited from earlier work"}}}
{"compound": "prostaglandin F2α [PGF2α]", "values": [{"measurement": "side effects of topical ocular use (in words)", "setting": "ocular surface", "result": "ocular surface (conjunctival) hyperemia and foreign-body sensation"}]}
{"compound": "NC(=O)CCC/C=C\\CC1C(O)CC(O)C1/C=C/C(O)CCc1sccc1I", "note": "(stereo not drawn) [Compound 8t]", "values": [{"measurement": "ocular hypotensive effect (in words)", "setting": "Dog intraocular pressure", "result": "pronounced ocular hypotensive effect"}]}
{"compound": "O=C(O)CCC/C=C\\C[C@@H]1[C@@H](/C=C/[C@@H](O)CCc2cc(Cl)sc2Cl)[C@H](O)C[C@@H]1O", "note": "[Compound 4g, 7-[3α,5α-Dihydroxy-2-(3α-hydroxy-5-(3-(2,5-dichloro)thienyl)-1E-pentenyl)cyclopentyl]-5Z-heptenoic acid]", "values": [{"measurement": "ocular hypotensive effect (in words)", "setting": "Dog intraocular pressure", "result": "pronounced ocular hypotensive effect"}]}
{"compound": "O=C(O)CCC/C=C\\C[C@@H]1[C@@H](/C=C/[C@@H](O)CCc2cc(Cl)sc2Cl)[C@H](O)C[C@@H]1O", "note": "[drawing 28]", "values": [{"measurement": "EC50", "setting": "EP1 receptor", "result": "> 10000", "unit": "nM"}, {"measurement": "Hyp (hyperemia score)", "setting": "Dog eye (hyperemia); 0.1%", "result": 0.5}, {"measurement": "EC50", "setting": "[1]", "result": 7.7, "unit": "nM"}, {"measurement": "EC50", "setting": "EP3 receptor", "result": "> 10000", "unit": "nM"}, {"measurement": "Miosis", "setting": "Dog eye (miosis); 0.1%", "result": "pinpt"}, {"measurement": "EC50", "setting": "TP receptor", "result": 2300, "unit": "nM"}]}
{"compound": "O=C(O)CCC/C=C\\C[C@@H]1[C@@H](/C=C/[C@@H](O)CCc2ccco2)[C@H](O)C[C@@H]1O", "values": [{"measurement": "EC50", "setting": "EP1 receptor", "result": "> 10000", "unit": "nM"}, {"measurement": "Hyp (hyperemia score)", "setting": "Dog eye (hyperemia); 0.01%", "result": 0.54}, {"measurement": "Hyp (hyperemia score)", "setting": "Dog eye (hyperemia); 0.1%", "result": 0.67}, {"measurement": "EC50", "setting": "[1]", "result": "> 7690", "unit": "nM"}, {"measurement": "EC50", "setting": "EP3 receptor", "result": 44, "unit": "nM"}, {"measurement": "Miosis", "setting": "Dog eye (miosis); 0.01%", "result": "mild"}, {"measurement": "Miosis", "setting": "Dog eye (miosis); 0.1%", "result": "pinpoint"}, {"measurement": "EC50", "setting": "TP receptor", "result": "~10000", "unit": "nM"}]}
{"compound": "O=C(O)CCC/C=C\\C[C@@H]1[C@@H](/C=C/[C@@H](O)CCc2ccsc2)[C@H](O)C[C@@H]1O", "note": "[Compound 4p, 7-[3α,5α-Dihydroxy-2-(3α-hydroxy-5-(3-thienyl)-1E-pentenyl)cyclopentyl]-5Z-heptenoic acid]", "values": [{"measurement": "ocular hypotensive effect (in words)", "setting": "Dog intraocular pressure", "result": "excellent ability to lower intraocular pressure"}]}
{"compound": "O=C(O)CCC/C=C\\C[C@@H]1[C@@H](/C=C/[C@H](O)CCc2cccs2)[C@H](O)C[C@@H]1O", "values": [{"measurement": "EC50", "setting": "EP1 receptor", "result": "> 10000", "unit": "nM"}, {"measurement": "Hyp (hyperemia score)", "setting": "Dog eye (hyperemia); 0.1%", "result": 0.79}, {"measurement": "EC50", "setting": "[1]", "result": 31, "unit": "nM"}, {"measurement": "EC50", "setting": "EP3 receptor", "result": "> 10000", "unit": "nM"}, {"measurement": "Miosis", "setting": "Dog eye (miosis); 0.1%", "result": "pinpt"}, {"measurement": "EC50", "setting": "TP receptor", "result": "> 10000", "unit": "nM"}]}
{"compound": "Cc1cc(CC[C@H](O)/C=C/[C@@H]2[C@@H](C/C=C\\CCCC(=O)O)[C@@H](O)C[C@H]2O)cs1", "values": [{"measurement": "EC50", "setting": "EP1 receptor", "result": "> 10000", "unit": "nM"}, {"measurement": "Hyp (hyperemia score)", "setting": "Dog eye (hyperemia); 0.01%", "result": 0.42}, {"measurement": "Hyp (hyperemia score)", "setting": "Dog eye (hyperemia); 0.1%", "result": 1.38}, {"measurement": "EC50", "setting": "[1]", "result": "> 7140", "unit": "nM"}, {"measurement": "EC50", "setting": "EP3 receptor", "result": 305, "unit": "nM"}, {"measurement": "Miosis", "setting": "Dog eye (miosis); 0.01%", "result": "pinpt"}, {"measurement": "Miosis", "setting": "Dog eye (miosis); 0.1%", "result": "pinpt"}, {"measurement": "EC50", "setting": "TP receptor", "result": "~10000", "unit": "nM"}]}
{"compound": "Cc1c(Br)csc1CCC(O)/C=C/C1C(O)CC(O)C1C/C=C\\CCCC(N)=O", "note": "(stereo not drawn) [Compound 8u]", "values": [{"measurement": "ocular hypotensive effect (in words)", "setting": "Dog intraocular pressure", "result": "pronounced ocular hypotensive effect"}]}
{"compound": "NC(=O)CCC/C=C\\CC1C(O)CC(O)C1/C=C/C(O)CCc1scc(Br)c1Br", "note": "(stereo not drawn) [Compound 8v]", "values": [{"measurement": "ocular hypotensive effect (in words)", "setting": "Dog intraocular pressure", "result": "pronounced ocular hypotensive effect"}]}
{"compound": "CO[C@H](/C=C/[C@@H]1[C@@H](C/C=C\\CCCC(=O)O)[C@@H](O)C[C@H]1O)CCc1ccsc1", "values": [{"measurement": "EC50", "setting": "EP1 receptor", "result": "> 10000", "unit": "nM"}, {"measurement": "Hyp (hyperemia score)", "setting": "Dog eye (hyperemia); 0.1%", "result": 0.83}, {"measurement": "EC50", "setting": "[1]", "result": 2.1, "unit": "nM"}, {"measurement": "EC50", "setting": "EP3 receptor", "result": 189, "unit": "nM"}, {"measurement": "Miosis", "setting": "Dog eye (miosis); 0.1%", "result": "pinpt"}, {"measurement": "EC50", "setting": "TP receptor", "result": "~10000", "unit": "nM"}]}
{"compound": "O=C(O)CCC/C=C\\C[C@@H]1[C@@H](/C=C/[C@@H](O)CCc2ccsc2Cl)[C@H](O)C[C@@H]1O", "values": [{"measurement": "EC50", "setting": "EP1 receptor", "result": "> 10000", "unit": "nM"}, {"measurement": "Hyp (hyperemia score)", "setting": "Dog eye (hyperemia); 0.1%", "result": 1.13}, {"measurement": "EC50", "setting": "[1]", "result": 47, "unit": "nM"}, {"measurement": "EC50", "setting": "EP3 receptor", "result": 1000, "unit": "nM"}, {"measurement": "Miosis", "setting": "Dog eye (miosis); 0.1%", "result": "pinpoint"}, {"measurement": "EC50", "setting": "TP receptor", "result": 2450, "unit": "nM"}]}
{"compound": "CCCCC[C@H](O)/C=C/[C@@H]1[C@@H](C/C=C\\CCCC(=O)OC(C)C)[C@@H](O)C[C@H]1O", "note": "[isopropyl ester of PGF2α]", "values": [{"measurement": "side effects of topical ocular use (in words)", "setting": "ocular surface", "result": "ocular surface (conjunctival) hyperemia and foreign-body sensation"}, {"measurement": "hypotensive potency versus parent compound (in words)", "setting": "intraocular pressure", "result": "significantly greater hypotensive potency than the parent compound"}]}
